How the values were obtained:
[1] = test system: E. faecium; assay: microbe, parasite or virus in culture; format: cell-based; conditions: E. faecium, gyrA Ser83Ile, parC Ser80Ile
[2] = test system: E. faecalis; assay: microbe, parasite or virus in culture; format: cell-based; conditions: E. faecalis, gyrA Ser83Ile

Measured: MIC

Cc1cc(=O)n(C)c2c3c4c(cc12)c(C)cc(=O)n4CO3 [DNM, deoxynybomycin]
0.25 µg/mL: [1]; C27569 | [1]; D1 | [1]; S51 | [1]; S122 | [1]; SL152 | [2]; C21667, parC Ser80Ile | [2]; C28535, parC Ser80Ile | [2]; S234, parC Ser80Ile Glu84Asp

CCn1c(=O)cc(C)c2cc3c(C)cc(=O)n4c3c(c21)OC4 [DNM-2]
0.25 µg/mL: [2]; C28535, parC Ser80Ile | [2]; S234, parC Ser80Ile Glu84Asp

Source: PMC4421842 (Nature Communications, 2015)
